From patent publication US20110104274A1, “NOVEL COMPOSITION AND USES THEREOF, IN PARTICULAR COSMETIC USES, FOR TREATING SKIN DEHYDRATION” (COMPAGNIE GERVAIS DANONE, priority 2006, published 2011)

Assays:
[1] = system: transglutaminase K (TGK) expression in normal human keratinocytes (NHEKs); experiment: Expression of transglutaminase K (TGK) in NHEKs (immunofluorescence related to number of nuclei); type: cell-based; settings: for Expression of TGK (average): related to negative control
Experimental: The GLA used is the product L2378 from the company SIGMA. The 4 main forms of catechins forming green tea polyphenol are mixed in the natural proportions: EGCG, EGC, ECG and EC (respective SIGMA references E4143, E3768, E3893 and E4018).
The range of concentration of GLA tested in vitro was from 1 to 4 μg/ml and that of GTP was from 0.3 to 0.7 μg/ml.
(§1) The tests are carried out on normal human keratinocytes (NHEKs) in a monolayer. The NHEKs are sown at 10^4/well in serum-free medium (SFM) without calcium, under conditions of temperature of 37° C., CO2 of 5% and relative humidity RH>95%. The NHEKs are incubated like this for 24 hours. The medium is then removed. Then the NHEKs are incubated for 48 hours in the presence of either: • SFM (serum-free medium) with addition of gamma-linolenic acid and green tea polyphenols at a concentration of 1.25, 2.5 or 3.75 μg/mL for GLA and at a concentration of 0.5 μg/ml for GTP; • SFM (serum-free medium) without calcium, which serves as negative control; • SFM (serum-free medium) with addition of calcium (1.50 mM), which serves as positive control.
The media are removed and a second incubation is carried out in the presence of the 3 types of media.
The culture medium is removed and then rinsing with PBS is carried out. The cells are then permeabilized and fixed with absolute methanol for 10 minutes at −20° C. Then drying and nonspecific saturation with a PBS-Tween20-milk proteins mixture are carried out, followed by rinsing with PBS. The NHEK cells are labelled with an anti-TGK monoclonal antibody (Reference: TEBU 0175003), then incubated for 1 hour at room temperature and rinsed with PBS.
Detection is carried out with a GAM-FITC conjugated secondary antibody (Reference: Life Technology A 11001) and the fluorescence is measured using software (Reference: NIKKON; LICIA Software).
The nuclei are labelled and counted by the Hoechst technique. First, the medium is removed and rinsing with PBS is carried out. Hoechst labelling (Reference: bis-benzimide Sigma B1155) is then used and incubation is carried out for 1 hour at ambient temperature. This is followed by rinsing with PBS, image acquisition and quantification of fluorescence.
The results are expressed in specific fluorescence of TGK, i.e. they are related to the number of nuclei so as to be independent of the variations in growth of the cells.
The average expression of TGK corresponds to measurement of the quantity of fluorescence referred to the number of nuclei after Hoechst labelling.

[2] = system: promoter of involucrin; settings: high dose of 20 μg/mL; literature; cited from earlier work
[3] = Bioavailability study: plasma/serum concentrations of catechins (EC, EGC, EGCG) after ingestion; type: in vivo, human; settings: ingestion of 45 mg of catechins
Experimental: This study evaluates the bioavailability of the combination of catechins with GLA, and in particular the bioavailability of this combination in a yoghurt containing probiotics (see Table 1).
To evaluate this bioavailability, the plasma concentrations of GLA and of catechins are monitored at different points in time after ingestion of products 1, 2, 3 or 4.
This study is a norm-centred, randomized, open study. It was carried out with 12 female volunteers (average age 30.8 years; body mass index (BMI) on average 21.4).
During each assessment visit (V2, V3, V4), the subjects consumed a product at random (among the 4 products). […]
[…] blood samples were taken in the 6 hours following ingestion of the product. The plasma concentration of the active ingredients was measured at 6 points in time (T0, T1 h, T2 h, T3 h, T4 h, T6 h) for measuring the plasma kinetics of GLA and the catechins. […]
The plasma concentrations of catechins and specifically of epicatechin (EC), epigallocatechin (EGC), and epigallocatechin gallate (EGCG) were determined by HPLC as described by Lee et al. (Lee M J, Prabhu S, Meng X, Li C, Yang C S. An improved method for the determination of green and black tea polyphenols in biomatrices by high-performance liquid chromatography with coulometric array detection. Anal. Biochem. 2000; 279: 164-9) and on the basis of the general knowledge of a person skilled in the art. […]

[4] = system: normal human keratinocytes (NHEKs); experiment: Cytotoxicity test (MTT) on NHEKs, involucrin study; type: cell-based; settings: up to 10 μg/mL, regardless of the calcium concentration
Experimental: (§2) The NHEKs of the two groups are incubated for 48 hours in the presence of a low ([…]) or a high ([…]) concentration of calcium, and in the presence of either: • SFM (serum-free medium) with addition of 0, 1, 3 and 10 μg/mL of gamma-linolenic acid and/or of green tea extracts, in which the concentration of green tea polyphenol is approximately 88 wt. %; • SFM (serum-free medium) with addition of calcium, which serves as positive control.
(§3) The cell viability of the NHEKs is evaluated after labelling with 3-[4,5-dimethylthiazol-2-yl]-2,5-diphenyltetrazolium bromide (MTT) (SIGMA).

[5] = system: normal human keratinocytes (NHEKs); experiment: Cytotoxicity test (MTT) on NHEKs, TGK study; type: cell-based; settings: MTT labelling
Experimental: as §1, §3

[6] = system: involucrin expression in normal human keratinocytes (NHEKs); experiment: Expression of involucrin in NHEKs (ELISA); type: cell-based; settings: 0 to 10 μg/mL; NHEKs of groups 1 (abdominal) and 2 (breast); high or low calcium concentration; 48 hours
Experimental: The GLA used is the product L2378 from the company SIGMA.
as §2

In the case of `[Ca+2]` [Ca++, calcium], the “Expression of TGK (average)” value ([1]; positive control, calcium 1.5 mM) is reported as 1407%.

In the case of `O=C(O[C@@H]1Cc2c(O)cc(O)cc2O[C@@H]1c1cc(O)c(O)c(O)c1)c1cc(O)c(O)c(O)c1` [EGCG, epigallocatechin gallate], the “effect on the promoter of involucrin” value [2] is given as “activation”, the “concentration of the individual catechin in the serum” value [3] is given as 0.04 to 0.33 µmol and the “concentration of the individual catechin in the serum” value ([3]; mass units) is given as 18 to 152 ng/mL.

For `CCCCC/C=C\C/C=C\C/C=C\CCCCC(=O)O` [GLA, gamma-linolenic acid], the “toxicity to the NHEKs” value [4] was “not toxic”, the “Expression of TGK (average)” value ([1]; GLA 1.25 μg/mL) was 250% and the “Expression of TGK (average)” value ([1]; GLA 3.75 μg/mL) was 220%. For the same molecule, the “expression/activation of TGK after treatment (conclusion in words)” value ([1]; at the concentrations tested (GLA 1.25 and 3.75 μg/mL; GTP 0.5 μg/mL; GLA 2.5 + GTP 0.5 μg/mL)) was “seems to be activated”, the “maximum concentration without loss of viability of the NHEKs” value [5] was 5.00 µg/mL and the “expression of involucrin after treatment alone” value [6] was “increased”.
